# Measurements reported in US10800782B2, “Inhibitors of cellular metabolic processes” (Agios Pharmaceuticals, Inc., priority 2016, dated 2020).
# Target: T1, MAT2A (Homo sapiens, UniProt P31153)
# T1 construct: His6; made in house; host or cells: SF9 insect cells
# Test: MAT2A biochemical assay (colorimetric inorganic phosphate detection, PiColorLock)
# Conditions: recombinant His6-tagged MAT2A 1 μg/ml; 60 minutes preincubation at 25° C.; L-Met 80 μM, ATP 100 μM; 60 minutes reaction; read at 623 nm; read-out: MAT2A Inhibition Score
# Experimental: In the reaction catalyzed by MAT2A enzyme, L-Met and ATP were converted to SAM, inorganic phosphate, and inorganic diphosphate. […] The concentration of malachite green phosphomolybdate produced in the detection reaction is thus directly related to the quantity of product produced by the MAT2A enzyme. Multiple commercial kits exist for this method of phosphate detection and quantification, such as PiColorLock Gold (Innova Biosciences). Typical reaction was performed in 50 μl final volume, containing buffer (Tris, pH 8.0, 50 mM KCl, 15 mM MgCl2, 300 uM EDTA, bovine serum albumin at 0.005% w/v) and 1 μg/ml MAT2A. Compounds were added in 1 μl of DMSO at the desired concentration; a typical dose response curve contained ten points with three-fold dilution between compound concentrations. […] The reaction was allowed to proceed for 60 minutes at room temperature then halted by the addition of 13 μl of PiColor Lock reagent. After a further 5 minutes of incubation at room temperature, […] of PiColor Stabilizer was added and the reactions were further incubated at 25° C. for 25 minutes. […] Recombinant MAT2A protein was expressed in SF9 insect cells and purified by metal chelate affinity chromatography, using methods well known in the art. After expression of His6-tagged MAT2A cells were disrupted by 4 passes through an M-Yl 10 Micro fluidizer (Microfluidics) set to 500 psi, and then centrifuged at 22,000 rcf for 20 min at 4° C. The supernatant was harvested and loaded at 15 cm/h on a Histrap FF 5*1 ml column (GE) which was equilibrated with 50 mM Tris, 500 mM NaCl, pH7.4. Host cell contaminants were removed by washing the column with equilibration buffer followed by equilibration buffer containing 20 mM imidazole and 60 mM imidazole to baseline. MAT2A protein was eluted by the addition of buffer containing 250 mM imidazole, dialized into 50 mM NaCl, 50 mM Tris, pH 7.4, flash frozen in liquid nitrogen, and stored at −80° C. until use.
# T1 sequence (P31153 whole entry): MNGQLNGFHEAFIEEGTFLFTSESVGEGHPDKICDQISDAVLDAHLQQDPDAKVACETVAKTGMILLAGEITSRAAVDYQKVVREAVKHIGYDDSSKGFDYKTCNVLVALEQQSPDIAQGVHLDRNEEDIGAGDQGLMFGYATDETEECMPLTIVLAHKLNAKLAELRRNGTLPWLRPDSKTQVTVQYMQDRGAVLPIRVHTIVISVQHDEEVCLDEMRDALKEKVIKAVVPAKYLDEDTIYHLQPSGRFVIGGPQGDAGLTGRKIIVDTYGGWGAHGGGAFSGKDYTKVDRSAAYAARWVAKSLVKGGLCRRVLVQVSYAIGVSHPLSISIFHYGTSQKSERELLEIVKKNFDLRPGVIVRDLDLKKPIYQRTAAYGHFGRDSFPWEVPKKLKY
row,Compound,IC50 [nM]
1,"COc1ccc(-c2c(Nc3ccno3)[nH]c3c(-c4ccccc4)c(-c4ccccc4)nn3c2=O)cc1 [Compound 140, 5-(isoxazol-5-ylamino)-6-(4-methoxyphenyl)-2,3-diphenylpyrazolo[1,5-a]pyrimidin-7(4H)-one]",< 100
2,"Cc1[nH]c2c(-c3ccccc3)c(-c3ccccc3)nn2c(=O)c1-c1ccc2nccnc2c1 [Compound 331, 5-methyl-2,3-diphenyl-6-(quinoxalin-6-yl)pyrazolo[1,5-a]pyrimidin-7(4H)-one]",100 to 1000
3,"COc1ccc(-c2c(Nc3cc(C#N)ccn3)[nH]c3c(-c4ccccc4)c(-c4ccccc4)nn3c2=O)cc1 [Compound 114, 2-(6-(4-methoxyphenyl)-7-oxo-2,3-diphenyl-4,7-dihydropyrazolo[1,5-a]pyrimidin-5-ylamino)isonicotinonitrile]",< 100
4,"COc1ccc(-c2c(Nc3ncc(Cl)cn3)[nH]c3c(-c4ccccc4)c(-c4ccccc4)nn3c2=O)cc1 [Compound 122, 5-((5-chloropyrimidin-2-yl)amino)-6-(4-methoxyphenyl)-2,3-diphenylpyrazolo[1,5-a]pyrimidin-7(4H)-one]",< 100
5,"COc1ccc(-c2c(Cn3cnnn3)[nH]c3c(-c4ccccc4)c(-c4ccccc4)nn3c2=O)cc1 [Compound 338, 5-((1H-tetrazol-1-yl)methyl)-6-(4-methoxyphenyl)-2,3-diphenylpyrazolo[1,5-a]pyrimidin-7(4H)-one]",100 to 1000
6,"COc1ccc(-c2c(Nc3cccnn3)[nH]c3c(C4=CCCCC4)c(-c4ccccc4)nn3c2=O)cc1 [Compound 157, 3-(cyclohex-1-en-1-yl)-6-(4-methoxyphenyl)-2-phenyl-5-(pyridazin-3-ylamino)pyrazolo[1,5-a]pyrimidin-7(4H)-one]",< 100
7,"O=c1c(-c2ccc3ncccc3c2)c(Nc2cnccn2)[nH]c2c(C3=CCCCC3)c(-c3ccccc3)nn12 [Compound 175, 3-cyclohexenyl-2-phenyl-5-(pyrazin-2-ylamino)-6-(quinolin-6-yl)pyrazolo[1,5-a]pyrimidin-7(4H)-one]",< 100
8,"COc1ccc(-c2c(Nc3ccccn3)[nH]c3c(-c4cccc(Cl)c4)c(-c4ccccc4)nn3c2=O)cc1 [Compound 178, 3-(3-chlorophenyl)-6-(4-methoxyphenyl)-2-phenyl-5-(pyridin-2-ylamino)pyrazolo[1,5-a]pyrimidin-7(4H)-one]",< 100
9,"Cc1[nH]c2c(-c3ccccc3)c(-c3ccccc3)nn2c(=O)c1-c1ccc2ncn(C)c2c1 [Compound 256, 5-methyl-6-(1-methyl-1H-benzo[d]imidazol-6-yl)-2,3-diphenylpyrazolo[1,5-a]pyrimidin-7(4H)-one]",< 100
10,"CC(=O)Nc1ccc(-c2c(C)[nH]c3c(N4CCCCC4)c(-c4ccccc4)nn3c2=O)cc1 [Compound 308, N-(4-(5-methyl-7-oxo-2-phenyl-3-(piperidin-1-yl)-4,7-dihydropyrazolo[1,5-a]pyrimidin-6-yl)phenyl)acetamide]",1000 to 10000
11,"Cc1[nH]c2c(-c3ccccc3)c(-c3ccccc3)nn2c(=O)c1-c1ccc(O)c(Cl)c1 [Compound 239, 6-(3-chloro-4-hydroxyphenyl)-5-methyl-2,3-diphenylpyrazolo[1,5-a]pyrimidin-7(4H)-one]",< 100
12,"Cc1[nH]c2c(C3=CCCCC3)c(-c3ccccc3)nn2c(=O)c1-c1ccc(OP(=O)(O)O)cc1 [Compound 295, 4-(3-(cyclohex-1-en-1-yl)-5-methyl-7-oxo-2-phenyl-4,7-dihydropyrazolo[1,5-a]pyrimidin-6-yl)phenyl dihydrogen phosphate]",< 100
13,"COc1ccc(-c2c(Nc3ccccc3)[nH]c3c(-c4ccccc4)c(-c4ccccc4)nn3c2=O)cc1 [Compound 356, 6-(4-methoxyphenyl)-2,3-diphenyl-5-(phenylamino)pyrazolo[1,5-a]pyrimidin-7(4H)-one]",100 to 1000
14,"COc1ccc(-c2c(Nc3cc(N)[nH]n3)[nH]c3c(-c4ccccc4)c(-c4ccccc4)nn3c2=O)cc1 [Compound 186, 5-((5-amino-1H-pyrazol-3-yl)amino)-6-(4-methoxyphenyl)-2,3-diphenylpyrazolo[1,5-a]pyrimidin-7(4H)-one]",< 100
